# According to ChEMBL document CHEMBL2086385, “Synthesis and antimicrobial evaluation of L-phenylalanine-derived C5-substituted rhodanine and chalcone derivatives containing thiobarbituric acid or 2-thioxo-4-thiazolidinone” (2012):
# Assays:
# Assay type in all cases: functional
# Staphylococcus aureus [1] = test: Antibacterial activity against Staphylococcus aureus KCTC 209 after 24 hrs by broth microdilution method; details: KCTC 209, 24 h
# Staphylococcus aureus [2] = test: Antibacterial activity against Staphylococcus aureus KCTC 503 after 24 hrs by broth microdilution method; details: KCTC 503, 24 h
# Staphylococcus aureus [3] = test: Antibacterial activity against Staphylococcus aureus RN4220 after 24 hrs by broth microdilution method; details: RN4220, 24 h
# Escherichia coli = test: Antibacterial activity against Escherichia coli CCARM 1356 after 24 hrs by broth microdilution method; details: CCARM 1356, 24 h
# Staphylococcus aureus [4] = test: Antibacterial activity against methicillin-resistant Staphylococcus aureus CCARM 3167 clinical isolate after 24 hrs by broth microdilution method; details: CCARM 3167, 24 h
# Staphylococcus aureus [5] = test: Antibacterial activity against methicillin-resistant Staphylococcus aureus CCARM 3506 clinical isolate after 24 hrs by broth microdilution method; details: CCARM 3506, 24 h
# Staphylococcus aureus [6] = test: Antibacterial activity against quinolone-resistant Staphylococcus aureus CCARM 3505 clinical isolate after 24 hrs by broth microdilution method; details: CCARM 3505, 24 h
# Staphylococcus aureus [7] = test: Antibacterial activity against quinolone-resistant Staphylococcus aureus CCARM 3519 clinical isolate after 24 hrs by broth microdilution method; details: CCARM 3519, 24 h
SMILES,MIC (Staphylococcus aureus [1]),MIC (Staphylococcus aureus [2]),MIC (Staphylococcus aureus [3]),MIC (Escherichia coli),MIC (Staphylococcus aureus [4]),MIC (Staphylococcus aureus [5]),MIC (Staphylococcus aureus [6]),MIC (Staphylococcus aureus [7])
O=Cc1ccc(OCc2ccc(F)cc2)cc1,> 64 µg/mL,> 64 µg/mL,> 64 µg/mL,> 64 µg/mL,> 64 µg/mL,> 64 µg/mL,> 64 µg/mL,> 64 µg/mL
O=Cc1ccc(/C=C/C(=O)c2ccc(F)cc2)cc1,> 64 µg/mL,> 64 µg/mL,> 64 µg/mL,> 64 µg/mL,> 64 µg/mL,> 64 µg/mL,> 64 µg/mL,> 64 µg/mL
O=Cc1ccc(OCc2ccccc2Cl)cc1,> 64 µg/mL,> 64 µg/mL,> 64 µg/mL,> 64 µg/mL,> 64 µg/mL,> 64 µg/mL,> 64 µg/mL,> 64 µg/mL
O=Cc1ccc(/C=C/C(=O)c2ccc(Cl)cc2Cl)cc1,> 64 µg/mL,> 64 µg/mL,> 64 µg/mL,> 64 µg/mL,> 64 µg/mL,> 64 µg/mL,> 64 µg/mL,> 64 µg/mL
Cc1ccc(COc2ccc(C=O)cc2)cc1,> 64 µg/mL,> 64 µg/mL,> 64 µg/mL,> 64 µg/mL,> 64 µg/mL,> 64 µg/mL,> 64 µg/mL,> 64 µg/mL
O=Cc1ccc(OCc2ccc(Cl)cc2)cc1,> 64 µg/mL,> 64 µg/mL,> 64 µg/mL,> 64 µg/mL,> 64 µg/mL,> 64 µg/mL,> 64 µg/mL,> 64 µg/mL
COc1cccc(C(=O)/C=C/c2ccc(C=O)cc2)c1,> 64 µg/mL,> 64 µg/mL,> 64 µg/mL,> 64 µg/mL,> 64 µg/mL,> 64 µg/mL,> 64 µg/mL,> 64 µg/mL
COc1ccccc1C(=O)/C=C/c1ccc(C=O)cc1,> 64 µg/mL,> 64 µg/mL,> 64 µg/mL,> 64 µg/mL,> 64 µg/mL,> 64 µg/mL,> 64 µg/mL,> 64 µg/mL
O=Cc1ccc(OCc2ccc(Br)cc2)cc1,> 64 µg/mL,> 64 µg/mL,> 64 µg/mL,> 64 µg/mL,> 64 µg/mL,> 64 µg/mL,> 64 µg/mL,> 64 µg/mL
O=C1NC(=S)S/C1=C/c1ccc(/C=C/C(=O)c2cccc(Cl)c2)cc1,> 64 µg/mL,> 64 µg/mL,> 64 µg/mL,> 64 µg/mL,> 64 µg/mL,> 64 µg/mL,> 64 µg/mL,> 64 µg/mL
O=Cc1ccc(/C=C/C(=O)c2ccc3ccccc3c2)cc1,> 64 µg/mL,> 64 µg/mL,> 64 µg/mL,> 64 µg/mL,> 64 µg/mL,> 64 µg/mL,> 64 µg/mL,> 64 µg/mL
CC(=O)Nc1ccc(C(=O)/C=C/c2ccc(C=O)cc2)cc1,> 64 µg/mL,> 64 µg/mL,> 64 µg/mL,> 64 µg/mL,> 64 µg/mL,> 64 µg/mL,> 64 µg/mL,> 64 µg/mL
O=Cc1ccc(/C=C/C(=O)c2ccccc2Br)cc1,> 64 µg/mL,> 64 µg/mL,> 64 µg/mL,> 64 µg/mL,> 64 µg/mL,> 64 µg/mL,> 64 µg/mL,> 64 µg/mL
O=Cc1ccc(OCc2ccc(Cl)cc2Cl)cc1,> 64 µg/mL,> 64 µg/mL,> 64 µg/mL,> 64 µg/mL,> 64 µg/mL,> 64 µg/mL,> 64 µg/mL,> 64 µg/mL
Cc1ccc(C(=O)/C=C/c2ccc(C=O)cc2)cc1,> 64 µg/mL,> 64 µg/mL,> 64 µg/mL,> 64 µg/mL,> 64 µg/mL,> 64 µg/mL,> 64 µg/mL,> 64 µg/mL
COc1ccc(C(=O)/C=C/c2ccc(C=O)cc2)cc1,> 64 µg/mL,> 64 µg/mL,> 64 µg/mL,> 64 µg/mL,> 64 µg/mL,> 64 µg/mL,> 64 µg/mL,> 64 µg/mL
O=Cc1ccc(OCc2ccccc2)cc1,> 64 µg/mL,> 64 µg/mL,> 64 µg/mL,> 64 µg/mL,> 64 µg/mL,> 64 µg/mL,> 64 µg/mL,> 64 µg/mL
O=C1NC(=S)NC(=O)C1=Cc1ccc(/C=C/C(=O)c2ccc(Cl)cc2)cc1,> 64 µg/mL,> 64 µg/mL,> 64 µg/mL,> 64 µg/mL,> 64 µg/mL,> 64 µg/mL,> 64 µg/mL,> 64 µg/mL
O=C1NC(=S)NC(=O)C1=Cc1ccc(/C=C/C(=O)c2ccccc2Cl)cc1,> 64 µg/mL,> 64 µg/mL,> 64 µg/mL,> 64 µg/mL,> 64 µg/mL,> 64 µg/mL,> 64 µg/mL,> 64 µg/mL

SMILES,MIC (Staphylococcus aureus [1]),MIC (Staphylococcus aureus [2]),MIC (Staphylococcus aureus [3]),MIC (Escherichia coli),MIC (Staphylococcus aureus [4]),MIC (Staphylococcus aureus [5]),MIC (Staphylococcus aureus [6]),MIC (Staphylococcus aureus [7])
O=Cc1ccc(/C=C/C(=O)c2ccccc2F)cc1,> 64 µg/mL,> 64 µg/mL,> 64 µg/mL,> 64 µg/mL,> 64 µg/mL,> 64 µg/mL,> 64 µg/mL,> 64 µg/mL
O=Cc1ccc(OCc2cccc(F)c2)cc1,> 64 µg/mL,> 64 µg/mL,> 64 µg/mL,> 64 µg/mL,> 64 µg/mL,> 64 µg/mL,> 64 µg/mL,> 64 µg/mL
O=Cc1ccc(/C=C/C(=O)c2ccccc2Cl)cc1,> 64 µg/mL,> 64 µg/mL,> 64 µg/mL,> 64 µg/mL,> 64 µg/mL,> 64 µg/mL,> 64 µg/mL,> 64 µg/mL
O=C1NC(=S)NC(=O)C1=Cc1ccc(/C=C/C(=O)c2ccc(F)cc2)cc1,> 64 µg/mL,> 64 µg/mL,> 64 µg/mL,> 64 µg/mL,> 64 µg/mL,> 64 µg/mL,> 64 µg/mL,> 64 µg/mL
O=Cc1ccc(/C=C/C(=O)c2ccc(Cl)cc2)cc1,> 64 µg/mL,> 64 µg/mL,> 64 µg/mL,> 64 µg/mL,> 64 µg/mL,> 64 µg/mL,> 64 µg/mL,> 64 µg/mL
O=C1NC(=S)S/C1=C/c1ccc(/C=C/C(=O)c2ccc(Cl)cc2)cc1,> 64 µg/mL,> 64 µg/mL,> 64 µg/mL,> 64 µg/mL,> 64 µg/mL,> 64 µg/mL,> 64 µg/mL,> 64 µg/mL
CCn1cc(C(=O)O)c(=O)c2cc(F)c(N3CCNCC3)cc21 [NORFLOXACIN],4 µg/mL,2 µg/mL,2 µg/mL,16 µg/mL,8 µg/mL,4 µg/mL,> 64 µg/mL,> 64 µg/mL
O=Cc1ccc(/C=C/C(=O)c2cccc(Cl)c2)cc1,> 64 µg/mL,> 64 µg/mL,> 64 µg/mL,> 64 µg/mL,> 64 µg/mL,> 64 µg/mL,> 64 µg/mL,> 64 µg/mL
Cc1ccc(C(=O)/C=C/c2ccc(C=O)cc2)c(C)c1,> 64 µg/mL,> 64 µg/mL,> 64 µg/mL,> 64 µg/mL,> 64 µg/mL,> 64 µg/mL,> 64 µg/mL,> 64 µg/mL
O=C1NC(=S)S/C1=C/c1ccc(/C=C/C(=O)c2ccccc2F)cc1,> 64 µg/mL,> 64 µg/mL,> 64 µg/mL,> 64 µg/mL,> 64 µg/mL,> 64 µg/mL,> 64 µg/mL,> 64 µg/mL
O=Cc1ccc(OCc2cccc(Cl)c2)cc1,> 64 µg/mL,> 64 µg/mL,> 64 µg/mL,> 64 µg/mL,> 64 µg/mL,> 64 µg/mL,> 64 µg/mL,> 64 µg/mL
Cc1onc(-c2ccccc2)c1C(=O)N[C@@H]1C(=O)N2[C@@H]1SC(C)(C)[C@@H]2C(=O)O [OXACILLIN],1 µg/mL,1 µg/mL,1 µg/mL,> 64 µg/mL,> 64 µg/mL,> 64 µg/mL,1 µg/mL,1 µg/mL
O=Cc1ccc(OCc2cccc(Br)c2)cc1,> 64 µg/mL,> 64 µg/mL,> 64 µg/mL,> 64 µg/mL,> 64 µg/mL,> 64 µg/mL,> 64 µg/mL,> 64 µg/mL
O=Cc1ccc(/C=C/C(=O)c2ccccc2)cc1,> 64 µg/mL,> 64 µg/mL,> 64 µg/mL,> 64 µg/mL,> 64 µg/mL,> 64 µg/mL,> 64 µg/mL,> 64 µg/mL
O=Cc1ccc(/C=C/C(=O)c2ccc(Br)cc2)cc1,> 64 µg/mL,> 64 µg/mL,> 64 µg/mL,> 64 µg/mL,> 64 µg/mL,> 64 µg/mL,> 64 µg/mL,> 64 µg/mL
O=Cc1ccc(/C=C/C(=O)c2cccc(Br)c2)cc1,> 64 µg/mL,> 64 µg/mL,> 64 µg/mL,> 64 µg/mL,> 64 µg/mL,> 64 µg/mL,> 64 µg/mL,> 64 µg/mL
O=C1NC(=S)NC(=O)C1=Cc1ccc(/C=C/C(=O)c2cccc(Cl)c2)cc1,> 64 µg/mL,> 64 µg/mL,> 64 µg/mL,> 64 µg/mL,> 64 µg/mL,> 64 µg/mL,> 64 µg/mL,> 64 µg/mL
O=C1NC(=S)S/C1=C/c1ccc(/C=C/C(=O)c2ccc(F)cc2)cc1,> 64 µg/mL,> 64 µg/mL,> 64 µg/mL,> 64 µg/mL,> 64 µg/mL,> 64 µg/mL,> 64 µg/mL,> 64 µg/mL
O=C1NC(=S)NC(=O)C1=Cc1ccc(/C=C/C(=O)c2ccccc2F)cc1,> 64 µg/mL,> 64 µg/mL,> 64 µg/mL,> 64 µg/mL,> 64 µg/mL,> 64 µg/mL,> 64 µg/mL,> 64 µg/mL
